Assay results published in article PMC13077603, “Fluorine‐18‐Labeled Nucleotide Analogs Targeting Ecto‐5'‐Nucleotidase (CD73) for Positron Emission Tomography Imaging of Solid Tumors” (Angewandte Chemie (International Ed. in English), 2026).

Test: PET/gamma counter biodistribution in healthy mice
Type: in vivo, C57BL/6 WT mice
Method: Next, biodistribution studies of compounds [^18F]1 and [^18F]2 were performed in female C57BL/6 WT mice. Dynamic (0–90 min), static (77–90 min), and late (240–260 min) scans were performed in a small animal PET scanner. Each PET scan was combined with computer tomography (CT). In the case of [^18F]2, […] of the tracer was excreted within the first 30 min via renal (19%ID) and hepatobiliary (60%ID, Figure 5A–C) routes. After 90 min, most of the tracer was found in the intestine, gallbladder, bladder (urine), and liver, while only 0.3 ± 0.1 %ID/mL of the radiosignal was detected in the blood at that time point (Figure 5B, C). Concentrations in the lung, heart, muscle, and brain were also relatively low. Nevertheless, during the first 3 min, the tracer was distributed within the whole body, reaching every tissue (Figure 5A).
The radiotracer [^18F]1 was injected into the tail vein, entered the heart, and was subsequently distributed throughout the whole body. […] Nearly no tracer accumulated in brain and urinary bladder, facilitating a favorable signal‐to‐noise ratio. We prolonged the imaging and performed an additional PET scan after 260 min to further increase the signal‐to‐background ratio. In all investigated residual organs (kidney, lung, heart, liver, and spleen), [^18F]1 was present even after 260 min, indicating a favorable biodistribution and high metabolic stability in vivo (Figure 5F).
Adult C57bl/6 (biodistribution study, 19.8±1.3 g) or tumor-bearing NSG mice (22.2±2.2 g) were anesthetized by isoflurane/O2, and one lateral tail vein was cannulated using a 27 G needle. A respective radiotracer (~ 390 kBq/g body weight) was injected as a bolus via the tail vein, and subsequent PET scanning was performed. A ~1000-fold excess of unlabeled JMS0414 (14 for [^18F]MRS-4648 ([^18F]2)), unlabeled PSB-19427 (1), or PSB-12651 (15) (for [^18F]PSB-19427 ([^18F]1)) was injected into a subgroup of tumor-bearing mice 10 min before radiotracer injection in the blocking studies. PET imaging studies were carried out using a submillimeter high resolution (0.7 mm full width at half-maximum) small animal scanner (32 module quadHIDAC, Oxford Positron Systems Ltd., Oxford, UK) with a uniform spatial resolution (<1 mm) over a large cylindrical field (165 mm diameter, 280 mm axial length). List-mode data were acquired for 90 min and reconstructed into dynamic time frames using an iterative reconstruction algorithm. In a subgroup of mice, measurements were complemented by late time point PET scans for 20 min 4 h after injection. Subsequently, after PET acquisitions, the scanning bed was transferred to the computed tomography (CT) scanner (Inveon, Siemens Medical Solutions, U.S.), and a CT acquisition with a spatial resolution of 80 μm was performed for each mouse. Final acquisitions were performed as contrast-enhanced CT with i.v. injection of iopromid (Ultravist®370). Reconstructed image data sets were coregistered based on extrinsic markers attached to the multimodal scanning bed, and the in-house developed image analysis software MEDgical (EIMI) was used for quantification. Three-dimensional volumes of interest (VOIs) were defined over the respective organs in CT data sets, transferred to the coregistered PET data, and analyzed quantitatively. Regional uptake was calculated as the percentage of injected dose by dividing counts per min (cpm) in the VOI by total counts in the mouse multiplied by 100 (%ID/mL). The clearance of the radiotracers was calculated based on the PET results. PET imaging studies using [^18F]FDG were performed analogously with a few variations. List-mode data were acquired for 60-75 min after tracer injection and reconstructed using an iterative reconstruction algorithm. Additionally, the scanned mice remained alive after PET and CT scans and were used the next day for imaging experiments with [^18F]PSB-19427 ([^18F]1) for direct comparison of [^18F]FDG and [^18F]PSB-19427 ([^18F]1). […]

Hepatobiliary excretion route (at 90 min p.i.) [%ID] | Radiosignal proportion in the blood (at 90 min p.i.) | Renal excretion route (time not given) [%ID] | Radiosignal in blood (after 90 min) [%ID/mL] | Hepatobiliary excretion (within the first 30 min) [%ID] | Renal excretion (within the first 30 min) [%ID] | Fraction of tracer excreted (within the first 30 min, i.v., female C57BL/6 WT mice) [%] | SMILES
37 | 18.2% ± 1.7 %ID/g | 2 |  |  |  |  | CCCN(Cc1ccc(-c2cn(CC[18F])nn2)cc1)c1nc(Cl)nc2c1ncn2[C@@H]1O[C@H](COP(=O)(O)CP(=O)(O)O)[C@@H](O)[C@H]1O [[^18F]1, [^18F]-[((2R,3S,4R,5R)-5-{2-chloro-6-[(4-{1-[2-(fluoro)ethyl]-1H-1,2,3-triazol-4-yl}benzyl)-(propyl)amino]-9H-purin-9-yl}-3,4-dihydroxytetrahydrofuran-2-yl)methoxy]methylene-bisphosphonic acid]
 |  |  | 0.3 ± 0.1 | 60 | 19 | > 95 | Cn1c(=O)n([C@@H]2O[C@H](COP(=O)(O)CP(=O)(O)O)[C@@H](O)[C@H]2O)cc/c1=N/OCc1ccc(-c2cn(CC[18F])nn2)cc1 [[^18F]2, [^18F]-{[(2R,3S,4R,5R)-5-(4-{[(4-{1-[2-(fluoro)ethyl]-1H-1,2,3-triazol-4-yl}benzyl)-oxy]imino}-3-methyl-2-oxo-3,4-dihydropyrimidin-1(2H)-yl)-3,4-dihydroxytetra-hydrofuran-2-yl]methoxy}methylenebisphosphonic acid]
